# Measurements published in US9730938B2, “Bruton's tyrosine kinase inhibitor combinations and uses thereof” (Pharmacyclics LLC, priority 2014, dated 2017).
# Tests used:
# Assay in all cases: Combined drug treatment cell viability, CellTiter-Glo assay (Example 1)
# Assay type in all cases: cell-based
# Conditions in all cases: 3 days
# [1] = tested on: U2932
# Experimental: (§1) DLBCL cells at either 1×10^4 cells or 2×10^4 cells were plated onto each well of a 96-W plate (Table 1).
# (§2) The stock solutions for the IDH1 inhibitor AGI5198 and the MALT1 inhibitor MI-2 were each prepared at 50 mM concentration.
# (§3) The 96-W plate was then incubated for 3 days. Cell viability was examined using a CellTiter-Glo assay.
# (§4) A 40 μL of CellTiter-Glo reagent was added directly into each well of the 96-W plate. The plate was then shaken on a Shaker (Labsystem Wellmix) at speed 5 for 10-20 min at room temperature. Next, 100 μL of the mixed medium was transferred to a white, non-transparent, flat bottom 96-W plate for assaying. A Flexstation 3 luminometer was used for detecting and measuring the luminescent signals. Measurements were taken at room temperature.
# (§5) In general, the combination is described as synergistic (CI<1), additive (CI=1), or antagonistic (CI>1). Synergism is further separated into very strong synergism (<0.1), strong synergism (0.1-0.3), synergism (0.3-0.7), moderate synergism (0.7-0.85), and slight synergism (0.85-0.9).
# [2] = tested on: TMD8
# Experimental: as §1, §2, §3, §4, §5
# [3] = tested on: OCI-LY-3
# Experimental: as §1, §2, §3, §4, §5
# [4] = tested on: OCI-LY-10
# Experimental: as §1, §2, §3, §4, §5
# [5] = tested on: SU-DHL-2
# Experimental: as §1, §2, §3, §4, §5
# [6] = ibrutinib 0 nM, IDH1i 10 uM / MALT1i 200 nM alone
# [7] = ibrutinib 0.0256 nM, IDH1i 10 uM / MALT1i 200 nM / medium alone
# [8] = ibrutinib 0.128 nM, IDH1i 10 uM / MALT1i 200 nM / medium alone
# [9] = ibrutinib 0.64 nM, IDH1i 10 uM / MALT1i 200 nM / medium alone
# [10] = ibrutinib 3.2 nM, IDH1i 10 uM / MALT1i 200 nM / medium alone
# [11] = ibrutinib 16 nM, IDH1i 10 uM / MALT1i 200 nM / medium alone
# [12] = ibrutinib 80 nM, IDH1i 10 uM / MALT1i 200 nM / medium alone
# [13] = ibrutinib 400 nM, IDH1i 10 uM / MALT1i 200 nM / medium alone
# [14] = ibrutinib 2000 nM, IDH1i 10 uM / MALT1i 200 nM / medium alone
# [15] = ibrutinib 10000 nM, IDH1i 10 uM / MALT1i 200 nM / medium alone
# [16] = ibrutinib 0 nM, IDH1i 10 uM / MALT1i 5 uM alone
# [17] = ibrutinib 0.0256 nM, IDH1i 10 uM / MALT1i 5 uM / medium alone
# [18] = ibrutinib 0.128 nM, IDH1i 10 uM / MALT1i 5 uM / medium alone
# [19] = ibrutinib 0.64 nM, IDH1i 10 uM / MALT1i 5 uM / medium alone
# [20] = ibrutinib 3.2 nM, IDH1i 10 uM / MALT1i 5 uM / medium alone
# [21] = ibrutinib 16 nM, IDH1i 10 uM / MALT1i 5 uM / medium alone
# [22] = ibrutinib 80 nM, IDH1i 10 uM / MALT1i 5 uM / medium alone
# [23] = ibrutinib 400 nM, IDH1i 10 uM / MALT1i 5 uM / medium alone
# [24] = ibrutinib 2000 nM, IDH1i 10 uM / MALT1i 5 uM / medium alone
# [25] = ibrutinib 10000 nM, IDH1i 10 uM / MALT1i 5 uM / medium alone
structure (smiles),measurement,setting,value
Cc1ccccc1C(C(=O)NC1CCCCC1)N(C(=O)Cn1ccnc1C)c1cccc(F)c1 (centres unmarked) [AGI5198],luminescence (CellTiter-Glo),[1]; [6],52209.68
same,luminescence (CellTiter-Glo),[1]; [7],47490.41
same,luminescence (CellTiter-Glo),[1]; [8],48958.10
same,luminescence (CellTiter-Glo),[1]; [9],45155.81
same,luminescence (CellTiter-Glo),[1]; [10],46620.86
same,luminescence (CellTiter-Glo),[1]; [11],43920.00
same,luminescence (CellTiter-Glo),[1]; [12],43730.28
same,luminescence (CellTiter-Glo),[1]; [13],45769.76
same,luminescence (CellTiter-Glo),[1]; [14],43047.82
same,luminescence (CellTiter-Glo),[1]; [15],31970.32
same,luminescence (CellTiter-Glo),"[2]; ibrutinib 0 nM, IDH1i 10 uM / MALT1i 100 nM alone",75993.70
same,luminescence (CellTiter-Glo),"[2]; ibrutinib 0.0256 nM, IDH1i 10 uM / MALT1i 100 nM / medium alone",25500.80
same,luminescence (CellTiter-Glo),"[2]; ibrutinib 0.128 nM, IDH1i 10 uM / MALT1i 100 nM / medium alone",25788.09
same,luminescence (CellTiter-Glo),"[2]; ibrutinib 0.64 nM, IDH1i 10 uM / MALT1i 100 nM / medium alone",22928.31
same,luminescence (CellTiter-Glo),"[2]; ibrutinib 3.2 nM, IDH1i 10 uM / MALT1i 100 nM / medium alone",23004.75
same,luminescence (CellTiter-Glo),"[2]; ibrutinib 16 nM, IDH1i 10 uM / MALT1i 100 nM / medium alone",22519.77
same,luminescence (CellTiter-Glo),"[2]; ibrutinib 80 nM, IDH1i 10 uM / MALT1i 100 nM / medium alone",22451.24
same,luminescence (CellTiter-Glo),"[2]; ibrutinib 400 nM, IDH1i 10 uM / MALT1i 100 nM / medium alone",19936.75
same,luminescence (CellTiter-Glo),"[2]; ibrutinib 2000 nM, IDH1i 10 uM / MALT1i 100 nM / medium alone",19649.45
same,luminescence (CellTiter-Glo),"[2]; ibrutinib 10000 nM, IDH1i 10 uM / MALT1i 100 nM / medium alone",9604.64
same,luminescence (CellTiter-Glo),[3]; [16],61813.89
same,luminescence (CellTiter-Glo),[3]; [17],60845.63
same,luminescence (CellTiter-Glo),[3]; [18],58171.75
same,luminescence (CellTiter-Glo),[3]; [19],64267.34
same,luminescence (CellTiter-Glo),[3]; [20],61774.53
same,luminescence (CellTiter-Glo),[3]; [21],63970.82
same,luminescence (CellTiter-Glo),[3]; [22],65372.05
same,luminescence (CellTiter-Glo),[3]; [23],68413.28
same,luminescence (CellTiter-Glo),[3]; [24],66282.58
same,luminescence (CellTiter-Glo),[3]; [25],58163.88
same,luminescence (CellTiter-Glo),[4]; [16],54469.95
same,luminescence (CellTiter-Glo),[4]; [17],60402.37
same,luminescence (CellTiter-Glo),[4]; [18],45182.13
same,luminescence (CellTiter-Glo),[4]; [19],49163.38
same,luminescence (CellTiter-Glo),[4]; [20],37017.16
same,luminescence (CellTiter-Glo),[4]; [21],22951.32
same,luminescence (CellTiter-Glo),[4]; [22],21796.92
same,luminescence (CellTiter-Glo),[4]; [23],22543.73
same,luminescence (CellTiter-Glo),[4]; [24],22738.32
same,luminescence (CellTiter-Glo),[4]; [25],21999.40
same,luminescence (CellTiter-Glo),[5]; [6],124126.7
same,luminescence (CellTiter-Glo),[5]; [7],130906.9
same,luminescence (CellTiter-Glo),[5]; [8],145229.1
same,luminescence (CellTiter-Glo),[5]; [9],142615.3
same,luminescence (CellTiter-Glo),[5]; [10],156751.0
same,luminescence (CellTiter-Glo),[5]; [11],152240.5
same,luminescence (CellTiter-Glo),[5]; [12],152613.5
same,luminescence (CellTiter-Glo),[5]; [13],145121.4
same,luminescence (CellTiter-Glo),[5]; [14],149634.6
same,luminescence (CellTiter-Glo),[5]; [15],50666.3
